Assay results published in patent US20250215071A1, “Novel Mcl-1 inhibitor and combination of Mcl-1 and a BH3 mimetic, such as a Bcl-2 inhibitor” (NETRIS PHARMA, priority 2022, published 2025).
Residues, ends and D or L forms follow the SMILES beside them. *: point of attachment. Cbz = O=C(OCc1ccccc1)*

Tests used:
Assay type in all cases: cell-based, Human
HeLa UNC5B cells = assay: UNC5B-induced DNA fragmentation in HeLa UNC5B cells; conditions: doxycycline-induced UNC5B; 18 hours
Method: FIG. 2. CRISPR-Cas9 screening identifies genes and molecular pathways involved in UNC5B-induced cell death. Related to FIG. 1. (A): UNC5B induction upon treatment with doxycycline. Stable HCT116 cells, inducible for UNC5B, were treated with the indicated concentrations of doxycycline (Dox). 24 hours later, protein levels of FLAG-UNC5B and GAPDH, used as housekeeping gene, were assessed by western blot. (B): UNC5B induction upon treatment with doxycycline on Hela cells. Stable Hela cells inducible for UNC5B (HeLa UNC5B) were treated with the indicated doses of Dox for 18 hours. Protein levels of His-UNC5B and β-actin, used as housekeeping gene, were measured by western blot. (C,D,E): Induction of UNC5B triggers apoptotic cell death in HCT116 cells. Stable HCTT16 cells inducible for human UNC5B were treated with Dox. To assess cell death, propidium iodide (PI) incorporation was followed in real-time up to 36 hours, using an Incucyte Zoom technology (n=3, ** p<0.01, Kolmogorov Smirnov test) (C). Apoptosis was assessed 18 hours after Dox treatment by DNA fragmentation through flow cytometry ([…] (D) and by caspase-3 activity (E), quantified by fluorometric detection kit (n=3, *p<0.05, ** p<0.01, *** p<0.001, Ordinary two-way ANOVA). Values are given as means±SEM. (F): Caspase inhibition rescues apoptosis triggered by UNC5B. HeLa UNC5B cells were treated with Dox and the pan-caspase inhibitor […] (QVD). 18 hours later, DNA fragmentation was evaluated by flow cytometry (n=3, **** p<0.0001, ordinary two-way ANOVA with Šidák's multiple comparisons test). Values are given as means±SEM. […] The number of guides showing an increase in reads compared to control condition is shown for each gene.
FIG. 4. […] 18 hours after treatment, apoptosis was measured by DNA fragmentation (A) and caspase-3 activity (B) (n=3-4, **** p<0.0001, ordinary two-way ANOVA with Tukey's multiple comparisons test). […] Protein levels of Mcl-1, Bcl-2 and Bcl-XL, as well as of UNC5B and B-actin, used as housekeeping gene, were evaluated by western blot. […]

caspase-3 = assay: UNC5B-induced caspase-3 activity in HeLa UNC5B cells; conditions: doxycycline 2 μg/mL; 18 hours
Method: Caspase-3 and -9 activity assays were performed as described previously (Paradisi et al., 2013; Paradisi et al., 2009). Briefly, HCT116 and HeLa cells were seeded and treated as for DNA fragmentation assay. Cells were then collected and caspase-3/caspase 9 activity assays were performed using the Caspase-3/Caspase-9 Fluorometric Assay Kit (BioVision, Milpitas, CA, USA), according to the manufacturer's instructions. Caspase activity (activity/min/mg of protein) was calculated from a 1 h kinetic cycle reading on a spectrofluorometer (405 nm/510 nm, Infinite F500, Tecan, Männedorf, Switzerland).

caspase-9 = assay: UNC5B-induced caspase-9 activity in HeLa UNC5B cells; conditions: Dox; 18 hours
Method: FIG. 5. UNC5B-mediated Mcl-1 degradation induces MOMP and caspase-9 activation. (A): UNC5B over-expression triggers Mitochondrial Outer Membrane Permeabilization (MOMP) in a COMMD2/CRL3 complex-dependent manner. Hela cells were transfected with scramble (siCTRL), COMMD2 (siCOMMD2-1) or RBX1 (siRBX1-1) siRNAs. 24 hours after transfection, cells were treated with Dox and after further 18 hours mitochondrial depolarization quantified by 5′,6,6′-tetrachloro-1,1′,3,3′-tetraethylbenzimi-dazolylcarbocyanine iodide (JC-1) dye staining, using NucleoCounter NC3000 (n=3, **** p<0.0001, ordinary two-way ANOVA with Tukey's multiple comparisons test). Values are given as means±SEM. (B,C,D): Apoptotic cell death induced by UNC5B over-expression requires caspase-9. HeLa UNC5B cells were transfected with scramble (siCTRL) or caspase-9 (siCASP9) siRNAs and 24 hours later treated with the indicated concentrations of Dox. Propidium iodide (PI)-positive cells were assessed in real-time up to 48 hours using Incucyte Zoom instrument (C) (n=[…], Kolmogorov-Smirnov test). DNA fragmentation was assessed by FACS analysis (D) and caspase-3 was measured using caspase-3 fluorometric kit (E), both 18 hours after treatment (n=[…], **** p<0.0001, ordinary two-way ANOVA with Šidák's multiple comparisons test). Values are given as means±SEM. […] HeLa UNC5B cells were treated with Dox and 18 hours later caspase-9 and -8 activities were assessed by fluorometric kit, using specific substrates (n=3, ^nsp>0.05, *p<0.05, Mann-Whitney test, one-tailed). […] 24 hours later, cells were treated with Dox and caspase-9 activity was measured by fluorometric kit (n=3, **** p<0.0001, ordinary two-way ANOVA with Tukey's multiple comparisons test). […] 18 hours after treatment, caspase-9 activity was assessed with the fluorometric kit (n=5, *p<0.05, ** p<0.01, *** p<0.001, **** p<0.0001, ordinary two-way ANOVA with Tukey's multiple comparisons test). […] Cells were then treated with Dox and Mcl-1 protein was evaluated by western blot. […]

Mcl-1 = Mcl-1 protein levels by western blot in HeLa UNC5B cells; conditions: endogenous Mcl-1; 2 μg/mL Dox; BTZ 1 μM, QVD 10 µM; 16 hours
Method: FIG. 4. UNC5B triggers proteasomal degradation of Mcl-1. (A,B): UNC5B-induced apoptosis requires proteasome activity. Stable Hela cells inducible for UNC5B (HeLa UNC5B) were treated with doxycycline (Dox) at 2 μg/mL, in combination with the indicated doses of the proteasome inhibitors MG132 and bortezomib (BTZ). 18 hours after treatment, apoptosis was measured by DNA fragmentation (A) and caspase-3 activity (B) (n=3-4, **** p<0.0001, ordinary two-way ANOVA with Tukey's multiple comparisons test). Values are given as means±SEM Treatment with proteasome inhibitors was sufficient to strongly reduce apoptosis induction upon UNC5B over-expression. (C): UNC5B triggers Mcl-1 degradation. HeLa UNC5B cells were treated with 2 μg/mL of Dox, in combination with bortezomib (BTZ, 1 μM) and the pan-caspase inhibitor Q-VD-OPh (QVD, 10 µM) inhibitors. 16 hours after treatment, cells were lysed by scraping and sonication in SDS-containing buffer. Protein levels of Mcl-1, Bcl-2 and Bcl-XL, as well as of UNC5B and B-actin, used as housekeeping gene, were evaluated by western blot. […] UNC5B over-expression specifically promoted Mcl-1 protein decrease. […] (D): Mcl-1 degradation induced by UNC5B requires COMMD2/CRL3 complex. HeLa UNC5B cells were transfected with scramble (siCTRL), COMMD2 (siCOMMD2) or RBX1 (siRBX1) siRNAs. […] Protein levels of Mcl-1, UNC5B and Ku80, used as housekeeping protein, were evaluated by western blot. […] Stable HeLa UNC5B cells, constitutively expressing Mcl-1 or empty vector, were treated with doxycycline and apoptosis was evaluated 18 hours later by DNA fragmentation (n=3, ^nsp>0.05, ordinary two-way ANOVA with Sidak's multiple comparisons test). […] Stable HeLa UNC5B cells, constitutively expressing Mcl-1, Bcl-2 or Bcl-XL were treated with Dox and protein levels were evaluated as described in (C). […] 18 hours later, protein levels of Mcl-1, UNC5B and β-actin, used as housekeeping gene, were evaluated by western blot. […] Cells were harvested at the indicated times after CHX treatment, and protein levels were assessed by western blot. […]

Row | SMILES | UNC5B-induced apoptosis (DNA fragmentation) (HeLa UNC5B cells) | UNC5B-induced caspase-3 activation (caspase-3) | UNC5B-induced caspase-9 activation (caspase-9) | Mcl-1 protein levels / degradation triggered by UNC5B (Mcl-1)
1 | CC(C)C[C@@H](C=O)NC(=O)[C@H](CC(C)C)NC(=O)[C@H](CC(C)C)NC(=O)OCc1ccccc1 [MG132] (Cbz-Leu-Leu-Leu-aldehyde) | suppressed | suppressed | sufficient to prevent UNC5B-induced caspase-9 activation | 
2 | CC(C)[C@H](NC(=O)c1ccc2ccccc2n1)C(=O)N[C@@H](CC(=O)O)C(=O)COc1c(F)cccc1F [Q-VD-OPh] | completely prevented apoptosis induction |  |  | not sufficient to prevent Mcl-1 degradation
